These results are taken from patent publication US7091357B2, “Chain-modified pyridino-N substituted nicotine compounds for use in the treatment of CNS pathologies” (University of Kentucky Research Foundation, priority 2001, dated 2006).

Usually Ki stands for the dissociation constant of the complex between target and ligand, obtained from inhibition or displacement. In general, IC50 refers to the point on the concentration scale where inhibition reaches its midpoint. A low value points to inhibition by little substance.

In test [1] the target is T1, α7 neuronal nicotinic acetylcholine receptor subtype (Rattus norvegicus, UniProt Q05941).
T1 construct: from tissue; host or cells: rat brain membranes (without cortex, striatum and cerebellum)
T1 sequence (Q05941 23-502): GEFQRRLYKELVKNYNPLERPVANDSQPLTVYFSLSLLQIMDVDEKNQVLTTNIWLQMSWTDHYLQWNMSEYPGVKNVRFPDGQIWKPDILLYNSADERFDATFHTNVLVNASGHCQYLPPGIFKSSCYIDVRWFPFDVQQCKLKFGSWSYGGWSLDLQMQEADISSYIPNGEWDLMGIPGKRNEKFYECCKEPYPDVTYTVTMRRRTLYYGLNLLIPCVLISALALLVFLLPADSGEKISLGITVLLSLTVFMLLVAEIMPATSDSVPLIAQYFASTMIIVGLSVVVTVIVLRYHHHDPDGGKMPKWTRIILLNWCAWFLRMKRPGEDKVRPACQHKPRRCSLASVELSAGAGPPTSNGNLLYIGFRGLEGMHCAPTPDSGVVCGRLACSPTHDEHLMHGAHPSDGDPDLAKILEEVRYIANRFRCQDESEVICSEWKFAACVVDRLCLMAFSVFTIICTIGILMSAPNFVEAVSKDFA
Briefly: [3H]-MLA binding assay, rat brain membranes. As to conditions: read-out: Ki, displacement of [3H]-MLA binding.
Experimental: Rat brain tissue (without cortex, striatum and cerebellum) was homogenized with a Tekmar Polytron (setting 40) in 20 volumes of ice-cold hypotonic buffer (2 mM HEPES, 14.4 mM NaCl, 0.15 mM KCl, 0.2 mM CaCl2 and 0.1 mM MgSO4, pH=7.5). The homogenate was incubated at 37° C. for 10 minutes and centrifuged at 25,000×g for 15 minutes at 40° C. The pellet was washed 3 times more by resuspension in the 20 volumes of the same buffer and centrifugation at the above parameters. The final pellet was stored at −20° C. under 4.6 ml of the incubation buffer and was suspended just before the incubation with radioligand.
The binding of [^3H]methyllycaconitine ([^3H]MLA), a probe for the α7 neuronal nicotinic acetylcholine receptor subtype, was determined using a modification of the method of Davies et al., “Characterisation of the binding of [^3H]methyllycaconitine: a new radioligand for labelling α7-type neuronal nicotinic acetylcholine receptors”, Neuropharmacology, 38, 679–690 (1999). [^3H]-MLA (25.4 Ci/mmol) was purchased from Tocris Cookson Ltd., Bristol, U.K. Binding was performed in duplicate, in a final volume of 250 μL of the incubation medium, containing 20 mM HEPES, 144 mM NaCl, 1.5 mM KCl, 2 mM CaCl2, 1 mM MgSO4 and 0.05% BSA, pH=7.5. Reaction was initiated by the addition of 100 μl of membrane suspension to the samples containing a desired concentration of test compounds and 2.5 nM [^3H]-MLA (final concentration) and incubated for 2 hours at room temperature. Total binding was measured in the absence of unlabelled ligand, and nonspecific binding was determined in the presence of 1 μM unlabelled MLA. The binding reaction was terminated by dilution of samples with 3 ml of ice-cold incubation buffer followed by immediate filtration through presoaked in 0.5% polyethylenimine glass fiber filters (S&S, grade #32) using a Brandel harvester system. Filters were rinsed three times with 3 ml of ice-cold buffer, transferred to scintillation vials and 4 ml of scintillation cocktail was added.

Test [2] addresses T2, Rat Striatal Nicotinic Acetylcholine Receptors (Rattus norvegicus, UniProt P09483+P12390).
T2 construct: from tissue; host or cells: rat striatal membranes
Kind of test: [3H]-NIC binding assay, rat striatal membranes. The note with it: 3 nM [3H]-NIC, at least 3 independent experiments, read-out: Ki, displacement of [3H]-NIC binding. For orientation: In a radioligand displacement assay an active substance lowers the binding of a labelled ligand.
Experimental: Striata from two rats were dissected, pooled, and homogenized with a Tekmar polytron in 10 volumes of ice-cold modified Krebs-HEPES buffer (20 mM HEPES, 118 mM NaCl, 4.8 mM KCl, 2.5 mM CaCl2, 1.2 mM MgSO4, adjusted to pH 7.5). The homogenates were incubated at 37° C. for 5 minutes and centrifuged at 15,000 g for 20 minutes. The pellet was resuspended in 10 volumes of ice-cold MilliQ water, incubated for 5 minutes at 37° C., and centrifuged at 15,000 g for 20 mm. The second pellet was then resuspended in 10 volumes of fresh ice-cold 10% Krebs-HEPES buffer, incubated at 37° C., and centrifuged at 15,000 g for 20 minutes. The latter sequence of resuspension, incubation, and rentrifugation was repeated. The pellet was frozen under fresh 10% Krebs-HEPES buffer and stored at −40° C. until assayed. Upon assay, the pellet was resuspended in the Krebs-HEPES buffer, incubated at 37° C. for 5 minutes, and centrifuged at 15,000 g for 20 mm. The final pellet was resuspended in 3.6 ml ice-cold MilliQ water which provided for approximately 200 μg protein per 100 μl aliquot. Competition assays were performed in triplicate in a final volume of 200 μl Krebs-HEPES buffer containing 250 mmol Tris buffer (pH 7.5 at 4° C.). […] After a 90 min incubation at 4° C., reactions were terminated by dilution of the samples with 3 ml of ice-cold Krebs-HEPES buffer followed immediately by filtration through Whatman GF/B glass fiber filters (presoaked in 0.5% polyethyleneimine) using a Brandel Cell Harvester. Filters were rinsed three times with 3 ml of ice-cold Krebs-HEPES buffer, transferred to scintillation vials, and 5 ml scintillation cocktail (Research Products International Corp., Mt. Prospect, Ill.) added. Nonspecific binding determined in triplicate was defined as binding in the presence of 10 μM NIC. Binding parameters were determined using the weighted, least squares nonlinear regression analysis.

The test system of test [3] is putative α3β2* receptor subtype. Kind of test: Inhibition of S-(−)-NIC-evoked [3H]-DA release from rat striatal slices. The note with it: rat striatal slices superfused 60 minutes with analog prior to NIC (10 μM). In kind it is cell-based. On the procedure: Rat striatal slices (500 μm thickness, 6–8 mg wet weight) were incubated for 30 minutes in Kreb's buffer (118 mM NaCl, 4.7 mMKCl, 1.2 mM MgCl2, 1.0 mM NaH2PO4, 1.3 mM CaCl2, 11.1 mM glucose, 25 mM NaHCO3, 0.11 mM L-ascorbic acid, and 0.004 mM disodium EDTA; pH 7.4, and saturated with 95% O2/5% CO2) in a metabolic shaker at 34° C. Slices were rinsed with 15 ml of fresh buffer and incubated for an additional 30 minutes in fresh buffer containing 0.1 μM [^3]H-DA (6 slices/3 ml). Subsequently, slices were rinsed with 15 ml of fresh buffer and transferred to a glass superfusion chamber. Slices were superfused (1.0 ml/min) for 60 minutes with Kreb's buffer containing nomifensine (10 μM) and pargyline (10 μM) and maintained at 34° C., pH 7.4, with continual aeration (95% O2/5% CO2). Two five minute samples (5 ml each) were collected to determine basal outflow of [^3H]-DA. […] Subsequently, S-(−)-nicotine (10 μM) was added to the buffer and an additional 12 consecutive five minute samples were collected. At the end of the experiment, each slice was solubilized and the [^3H] content of the tissue determined.
Radioactivity in the superfusate and tissue samples was determined by liquid scintillation spectroscopy. Fractional release for each sample was calculated by dividing by the total tritium present in the tissue at the time of sample collection, and was expressed as a percentage of total tissue tritium. […] The sum of the increase in collected tritium resulting from either exposure to the test-compound or exposure to nicotine in the absence and presence of the test compound equaled total [^3H]overflow. [^3H]Overflow was calculated by subtracting the [^3H]outflow during an equivalent period of prestimulation from the values in samples collected during and after drug exposure. Inasmuch as the radiolabelled compounds were not separated and identified, the tritium collected in superfusate is referred to as either [^3H]outflow or [^3 H]overflow, rather than as [^3H]-DA. [^3H]Overflow primarily represents [^3H]-DA in the presence of nomifensine and pargyline in the superfusion buffer.
In these experiments, striatal slices were superfused for 60 minutes with various concentrations of the analogs prior to NIC (10 μM) exposure. Antagonist activity was evaluated by comparing the NIC-evoked [^3H]overflow in the absence and presence of the analogs.

The mark [4] stands for this setting: rat brain membranes, 2.5 nM [3H]-MLA.

Structures can show the parent of a compound that is named as a salt. Where two headings read alike, the source gives them in different places. Bounds are passed on as bounds.

T2 sequence (P09483 31-630): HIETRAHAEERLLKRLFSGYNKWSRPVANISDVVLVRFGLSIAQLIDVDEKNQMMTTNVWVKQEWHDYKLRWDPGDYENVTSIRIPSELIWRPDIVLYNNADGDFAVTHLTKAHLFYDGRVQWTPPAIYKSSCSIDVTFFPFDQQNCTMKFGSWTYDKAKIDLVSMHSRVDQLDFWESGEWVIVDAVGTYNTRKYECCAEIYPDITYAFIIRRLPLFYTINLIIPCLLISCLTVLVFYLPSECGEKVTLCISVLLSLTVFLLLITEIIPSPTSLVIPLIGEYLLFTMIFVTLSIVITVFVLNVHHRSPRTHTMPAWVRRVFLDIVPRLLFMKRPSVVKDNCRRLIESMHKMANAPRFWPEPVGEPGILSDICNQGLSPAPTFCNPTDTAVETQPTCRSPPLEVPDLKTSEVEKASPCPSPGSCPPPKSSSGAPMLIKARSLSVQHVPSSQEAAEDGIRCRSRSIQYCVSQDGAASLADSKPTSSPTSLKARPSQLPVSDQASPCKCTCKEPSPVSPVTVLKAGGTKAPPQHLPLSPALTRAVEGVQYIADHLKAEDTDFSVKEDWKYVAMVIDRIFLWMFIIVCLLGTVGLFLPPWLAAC
T2 sequence (P12390 25-500): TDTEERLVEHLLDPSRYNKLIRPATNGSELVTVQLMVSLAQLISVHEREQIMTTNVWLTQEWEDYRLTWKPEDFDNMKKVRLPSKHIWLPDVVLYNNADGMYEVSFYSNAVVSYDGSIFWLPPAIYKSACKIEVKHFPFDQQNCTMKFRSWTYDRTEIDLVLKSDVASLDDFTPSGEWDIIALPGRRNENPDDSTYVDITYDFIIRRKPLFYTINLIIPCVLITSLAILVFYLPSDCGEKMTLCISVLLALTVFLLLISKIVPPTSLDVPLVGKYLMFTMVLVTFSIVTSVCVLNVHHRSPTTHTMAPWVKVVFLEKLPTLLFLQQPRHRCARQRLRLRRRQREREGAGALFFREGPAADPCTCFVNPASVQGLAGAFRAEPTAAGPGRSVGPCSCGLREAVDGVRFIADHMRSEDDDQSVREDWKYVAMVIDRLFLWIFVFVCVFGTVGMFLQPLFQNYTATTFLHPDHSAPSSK

As for α-Bungarotoxin [reference compound], in test [1], the Ki is 7.2 nM.
For `CCCC/C=C\CC[n+]1cccc([C@@H]2CCCN2C)c1` [NONB-3c, (S)-cis-3-(1-Methyl-pyrrolidin-2-yl)-1-oct-3-enyl-pyridinium bromide hydrobromide salt], the Ki in test [2] was 86 nM. Further, in test [3], half-maximal inhibition (IC50) was put at 2020 nM.
For `CN1CCC[C@H]1c1ccc[n+](CCCCCCC2CCCC2)c1` [NCyNB-5, (S)-1-(6-Cyclopentyl-hexyl)-3-(1-methyl-pyrrolidin-2-yl)-pyridinium bromide hydrobromide salt], the figures for the Ki in test [2] and in test [1] (setting [4]) were 5540 nM and 88700 nM, respectively.
As for `CCCCC#CCC[n+]1cccc([C@@H]2CCCN2C)c1` [NONB-3y, (S)-3-(1-Methyl-pyrrolidin-2-yl)-1-oct-3-ynyl-pyridinium bromide], in test [2], the Ki is 200 nM. This molecule also registered an IC50 in test [3] of 1680 nM.
In turn, `CCCCCCCC[n+]1cccc([C@@H]2CCCN2C)c1` [NONI, N-n-octylnicotinium iodide, reference compound] had an IC50 in test [3] of 620 nM.
On to `CC(C)=CCCCCC[n+]1cccc([C@@H]2CCCN2C)c1` [NONB-6e7M, (S)-1-(7-Methyl-oct-6-enyl)-3-(1-methyl-pyrrolidin-2-yl)-pyridinium bromide hydrobromide], for which the Ki in test [2] stood at 450 nM. This molecule also showed an IC50 in test [3] of 1990 nM.
Regarding `CCCCC/C=C\CCC[n+]1cccc([C@@H]2CCCN2C)c1` [NDNB-4c, (S)-cis-1-Dec-4-enyl-3-(1-methyl-pyrrolidin-2-yl)-pyridinium bromide hydrobromide salt], the Ki in test [2] worked out at 7790 nM. The same molecule came in with an IC50 in test [3] of 1480 nM.
On to `CN1CCC[C@H]1c1ccc[n+](CCCCCCC2CCCCC2)c1` [NCyNB-6, (S)-1-(6-Cyclohexyl-hexyl)-3-(1-methyl-pyrrolidin-2-yl)-pyridinium bromide hydrobromide salt], for which the Ki in test [2] was determined as 4560 nM; in test [1] (setting [4]) it was 42700 nM.
With `CCOCCOCC[n+]1cccc([C@@H]2CCCN2C)c1` [NONB-3O6O, (S)-1-[2-(2-Ethoxy-ethoxy)-ethyl]-3-(1-methyl-pyrrolidin-2-yl)-pyridinium bromide], the Ki in test [2] stood at 1200 nM.
For the molecule `CN1CCC[C@H]1c1ccc[n+](CCCCCCC2CCC2)c1` [NCyNB-4, (S)-1-(6-Cyclobutyl-hexyl)-3-(1-methyl-pyrrolidin-2-yl)pyridinium bromide hydrobromide salt], the Ki came out at 7200 nM in test [2] and 30300 nM in test [1] (setting [4]).
Regarding `CCCCC/C=C/CCC[n+]1cccc([C@@H]2CCCN2C)c1` [NDNB-4t, (S)-trans-1-Dec-4-enyl-3-(1-methyl-pyrrolidin-2-yl)-pyridinium bromide], the Ki in test [2] was 320 nM. The molecule further showed an IC50 in test [3] of 330 nM.
The matching figures for `CCCCCCCCCC[n+]1cccc([C@@H]2CCCN2C)c1` [NDNI, N-n-decylnicotinium iodide, reference compound]: 93 nM and > 100000 nM.
The matching figures for `CCCCCCC#CCC[n+]1cccc([C@@H]2CCCN2C)c1` [NDNB-3y, (S)-1-Dec-3-ynyl-3-(1-methyl-pyrrolidin-2-yl)-pyridinium bromide]: 810 nM and 2590 nM.
As for `CC(C)CCCCCC[n+]1cccc([C@@H]2CCCN2C)c1` [NONB-7M, (S)-1-(7-Methyl-octyl)-3-(1-methyl-pyrrolidin-2-yl)-pyridinium bromide hydrobromide salt], the Ki in test [2] came out at 440 nM. Moreover, in test [3], the IC50 was > 100000 nM.
For the molecule `C=CCCCCCC[n+]1cccc([C@@H]2CCCN2C)c1` [NONB-7e, (S)-3-(1-Methyl-pyrrolidin-2-yl)-1-oct-7-enyl-pyridinium bromide], the inhibitory constant (Ki) in test [2] turned out to be 450 nM. This molecule gave an IC50 in test [3] of 2610 nM.
For `CCCC/C=C/CC[n+]1cccc([C@@H]2CCCN2C)c1` [NONB-3t, (S)-trans-3-(1-Methyl-pyrrolidin-2-yl)-1-oct-3-enyl-pyridinium bromide hydrobromide salt] the same measures were 3970 nM and 3470 nM.
